According to ChEMBL document CHEMBL1201862, “PubChem BioAssay data set” (2004):
Active and inactive are the calls of the source.

How the values were obtained:
Type in all cases: functional
[1] = molecular target: Serine/threonine-protein kinase Nek2 (Homo sapiens, UniProt P51955)
[2] = molecular target: Dual specificity tyrosine-phosphorylation-regulated kinase 1A (Homo sapiens, UniProt Q13627);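 also: measured against DYRK1A as one member of a broad kinome profiling panel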
[3] = molecular target: Cyclin-dependent kinase 5 (Homo sapiens, UniProt Q00535);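 also: CDK5 measured as one member of a kinase profiling panel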
[4] = molecular target: T1, Serine/threonine-protein kinase Chk1 (Homo sapiens, UniProt O14757);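 also: measured as one member of a kinome-wide kinase profiling panel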
T1 sequence (O14757 whole entry): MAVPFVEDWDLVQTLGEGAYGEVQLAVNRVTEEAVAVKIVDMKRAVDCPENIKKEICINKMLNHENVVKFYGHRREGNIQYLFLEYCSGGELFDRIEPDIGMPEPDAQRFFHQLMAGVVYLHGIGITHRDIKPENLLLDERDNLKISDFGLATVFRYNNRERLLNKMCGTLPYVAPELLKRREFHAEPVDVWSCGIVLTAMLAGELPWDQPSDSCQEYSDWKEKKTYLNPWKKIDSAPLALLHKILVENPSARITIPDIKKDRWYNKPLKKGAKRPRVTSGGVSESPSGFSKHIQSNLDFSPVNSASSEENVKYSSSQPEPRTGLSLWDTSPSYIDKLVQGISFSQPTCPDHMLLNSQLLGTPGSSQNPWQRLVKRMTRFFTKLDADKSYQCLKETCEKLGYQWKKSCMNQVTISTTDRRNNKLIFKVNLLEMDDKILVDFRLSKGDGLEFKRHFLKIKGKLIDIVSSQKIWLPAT

[5] = molecular target: Dual specificity protein kinase CLK4 (Homo sapiens, UniProt Q9HAZ1)
[6] = molecular target: Leucine-rich repeat serine/threonine-protein kinase 2 (Homo sapiens, UniProt Q5S007);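 also: value from a broad kinome-wide panel profiling study in which LRRK2 was one of the kinases tested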
[7] = molecular target: Platelet-derived growth factor receptor alpha (Homo sapiens, UniProt P16234); assay: Navigating the Kinome. Panel member name: PDGFRA
[8] = molecular target: Dual specificity tyrosine-phosphorylation-regulated kinase 1B (Homo sapiens, UniProt Q9Y463); assay: Navigating the Kinome. Panel member name: DYRK1B
Dual specificity tyrosine-phosphorylation-regulated kinase 1B, sequence (Q9Y463 whole entry): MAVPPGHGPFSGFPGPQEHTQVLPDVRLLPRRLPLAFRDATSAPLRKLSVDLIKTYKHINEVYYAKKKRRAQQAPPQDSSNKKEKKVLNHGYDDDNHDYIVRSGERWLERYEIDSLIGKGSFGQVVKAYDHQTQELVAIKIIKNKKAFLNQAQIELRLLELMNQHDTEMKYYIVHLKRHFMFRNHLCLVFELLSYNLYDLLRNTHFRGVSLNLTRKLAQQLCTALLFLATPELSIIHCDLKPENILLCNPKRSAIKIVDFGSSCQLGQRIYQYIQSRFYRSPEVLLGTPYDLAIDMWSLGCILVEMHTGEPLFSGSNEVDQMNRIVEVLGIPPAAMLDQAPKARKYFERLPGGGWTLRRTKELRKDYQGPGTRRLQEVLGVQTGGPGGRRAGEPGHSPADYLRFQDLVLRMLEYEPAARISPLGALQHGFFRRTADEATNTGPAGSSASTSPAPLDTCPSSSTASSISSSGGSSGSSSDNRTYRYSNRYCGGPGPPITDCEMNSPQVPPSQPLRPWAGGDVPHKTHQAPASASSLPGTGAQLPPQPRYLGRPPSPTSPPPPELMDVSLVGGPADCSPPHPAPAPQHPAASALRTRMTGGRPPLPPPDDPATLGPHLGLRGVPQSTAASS

Dual specificity protein kinase CLK4, sequence (Q9HAZ1 whole entry): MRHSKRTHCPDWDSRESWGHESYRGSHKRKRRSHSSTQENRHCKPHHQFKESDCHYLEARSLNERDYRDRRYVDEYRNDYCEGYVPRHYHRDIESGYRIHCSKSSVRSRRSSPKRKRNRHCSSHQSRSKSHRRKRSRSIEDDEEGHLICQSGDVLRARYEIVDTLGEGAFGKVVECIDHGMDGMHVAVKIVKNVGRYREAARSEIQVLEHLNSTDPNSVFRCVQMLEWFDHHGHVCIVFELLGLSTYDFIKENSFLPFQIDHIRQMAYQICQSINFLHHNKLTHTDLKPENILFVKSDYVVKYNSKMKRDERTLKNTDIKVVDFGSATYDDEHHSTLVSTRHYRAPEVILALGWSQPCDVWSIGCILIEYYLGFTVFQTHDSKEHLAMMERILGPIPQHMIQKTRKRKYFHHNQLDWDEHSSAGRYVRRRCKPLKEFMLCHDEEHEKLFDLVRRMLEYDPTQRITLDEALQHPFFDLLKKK
Leucine-rich repeat serine/threonine-protein kinase 2, sequence (Q5S007 whole entry): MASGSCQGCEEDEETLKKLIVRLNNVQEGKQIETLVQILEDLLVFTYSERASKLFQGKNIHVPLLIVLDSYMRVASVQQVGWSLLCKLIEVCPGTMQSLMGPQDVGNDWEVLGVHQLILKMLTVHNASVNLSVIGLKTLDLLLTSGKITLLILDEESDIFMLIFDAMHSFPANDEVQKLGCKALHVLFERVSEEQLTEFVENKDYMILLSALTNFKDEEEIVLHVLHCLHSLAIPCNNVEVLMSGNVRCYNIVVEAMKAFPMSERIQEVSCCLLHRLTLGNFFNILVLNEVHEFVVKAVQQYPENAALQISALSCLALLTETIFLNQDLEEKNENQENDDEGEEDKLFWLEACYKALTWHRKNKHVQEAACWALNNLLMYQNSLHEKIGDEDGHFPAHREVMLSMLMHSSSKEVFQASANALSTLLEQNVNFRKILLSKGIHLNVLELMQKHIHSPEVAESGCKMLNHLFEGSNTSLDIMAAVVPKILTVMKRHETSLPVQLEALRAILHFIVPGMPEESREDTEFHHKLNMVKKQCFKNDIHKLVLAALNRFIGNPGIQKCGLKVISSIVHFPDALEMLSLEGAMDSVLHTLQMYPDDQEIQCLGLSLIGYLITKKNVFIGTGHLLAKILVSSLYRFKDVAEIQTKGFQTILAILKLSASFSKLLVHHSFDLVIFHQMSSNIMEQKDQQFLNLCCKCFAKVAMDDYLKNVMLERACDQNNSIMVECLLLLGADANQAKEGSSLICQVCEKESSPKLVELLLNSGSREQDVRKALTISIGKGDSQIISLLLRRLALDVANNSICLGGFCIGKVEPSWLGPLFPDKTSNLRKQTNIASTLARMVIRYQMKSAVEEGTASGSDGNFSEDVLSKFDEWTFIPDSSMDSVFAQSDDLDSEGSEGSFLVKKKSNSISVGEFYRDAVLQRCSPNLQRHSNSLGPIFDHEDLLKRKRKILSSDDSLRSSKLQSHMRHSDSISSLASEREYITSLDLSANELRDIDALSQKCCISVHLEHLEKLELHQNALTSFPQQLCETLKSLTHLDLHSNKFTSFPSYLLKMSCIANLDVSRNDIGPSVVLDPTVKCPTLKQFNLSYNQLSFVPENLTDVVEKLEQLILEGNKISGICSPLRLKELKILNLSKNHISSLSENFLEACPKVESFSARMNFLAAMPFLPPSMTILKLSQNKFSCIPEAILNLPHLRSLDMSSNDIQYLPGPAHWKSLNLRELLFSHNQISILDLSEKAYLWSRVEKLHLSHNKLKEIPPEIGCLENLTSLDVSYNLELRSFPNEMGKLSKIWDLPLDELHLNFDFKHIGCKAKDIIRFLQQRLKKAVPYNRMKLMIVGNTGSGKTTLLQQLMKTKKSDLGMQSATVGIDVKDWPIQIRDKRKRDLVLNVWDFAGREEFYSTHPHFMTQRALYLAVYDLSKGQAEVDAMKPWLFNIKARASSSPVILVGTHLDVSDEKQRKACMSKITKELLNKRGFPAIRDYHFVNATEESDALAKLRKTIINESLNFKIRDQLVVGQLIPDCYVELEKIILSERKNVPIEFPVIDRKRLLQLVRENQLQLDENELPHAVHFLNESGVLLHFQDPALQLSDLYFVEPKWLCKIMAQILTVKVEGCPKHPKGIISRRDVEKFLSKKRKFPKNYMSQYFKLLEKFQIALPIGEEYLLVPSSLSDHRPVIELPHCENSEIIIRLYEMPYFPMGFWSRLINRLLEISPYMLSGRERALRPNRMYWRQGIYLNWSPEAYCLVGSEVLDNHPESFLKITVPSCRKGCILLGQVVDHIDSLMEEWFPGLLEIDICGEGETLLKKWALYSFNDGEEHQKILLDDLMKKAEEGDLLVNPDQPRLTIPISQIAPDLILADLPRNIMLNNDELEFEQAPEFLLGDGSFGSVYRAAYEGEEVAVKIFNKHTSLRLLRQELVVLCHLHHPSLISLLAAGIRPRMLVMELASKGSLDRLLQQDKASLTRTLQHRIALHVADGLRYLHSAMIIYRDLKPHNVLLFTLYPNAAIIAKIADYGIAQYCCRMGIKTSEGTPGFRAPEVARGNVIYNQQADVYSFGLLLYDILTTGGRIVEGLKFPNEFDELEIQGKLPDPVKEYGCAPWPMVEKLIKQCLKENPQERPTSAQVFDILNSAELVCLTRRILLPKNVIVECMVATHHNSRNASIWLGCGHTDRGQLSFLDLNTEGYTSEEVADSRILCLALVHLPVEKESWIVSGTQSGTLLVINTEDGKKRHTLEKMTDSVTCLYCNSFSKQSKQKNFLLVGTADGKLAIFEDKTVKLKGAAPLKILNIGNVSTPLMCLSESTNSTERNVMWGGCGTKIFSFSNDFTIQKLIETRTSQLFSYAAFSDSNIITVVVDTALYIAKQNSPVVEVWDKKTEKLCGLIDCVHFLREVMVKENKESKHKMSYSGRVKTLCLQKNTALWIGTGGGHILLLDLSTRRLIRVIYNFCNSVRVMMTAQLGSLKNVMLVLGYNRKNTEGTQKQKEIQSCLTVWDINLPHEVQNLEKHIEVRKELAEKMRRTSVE
Serine/threonine-protein kinase Nek2, sequence (P51955 whole entry): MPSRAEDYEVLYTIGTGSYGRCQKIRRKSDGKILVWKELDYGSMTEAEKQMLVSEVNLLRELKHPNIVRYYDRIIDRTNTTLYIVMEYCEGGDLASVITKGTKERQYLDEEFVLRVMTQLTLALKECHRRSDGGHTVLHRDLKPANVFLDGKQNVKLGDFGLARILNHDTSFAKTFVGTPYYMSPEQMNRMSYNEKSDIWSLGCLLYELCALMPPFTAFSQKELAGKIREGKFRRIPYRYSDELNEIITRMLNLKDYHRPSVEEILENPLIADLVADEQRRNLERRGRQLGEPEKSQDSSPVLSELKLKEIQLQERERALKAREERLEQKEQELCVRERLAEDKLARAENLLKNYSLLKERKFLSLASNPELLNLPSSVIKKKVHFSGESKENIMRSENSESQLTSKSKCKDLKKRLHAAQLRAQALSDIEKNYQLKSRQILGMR
Cyclin-dependent kinase 5, sequence (Q00535 whole entry): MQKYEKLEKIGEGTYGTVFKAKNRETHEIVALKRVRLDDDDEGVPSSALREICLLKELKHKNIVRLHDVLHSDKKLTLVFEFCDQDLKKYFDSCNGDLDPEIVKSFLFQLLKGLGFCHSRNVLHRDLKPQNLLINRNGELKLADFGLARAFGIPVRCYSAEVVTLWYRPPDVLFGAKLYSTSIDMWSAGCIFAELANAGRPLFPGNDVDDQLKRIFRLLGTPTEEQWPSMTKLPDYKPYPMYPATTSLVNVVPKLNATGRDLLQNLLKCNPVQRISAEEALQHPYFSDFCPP

Ki [1] | SMILES | Ki [2] | Ki [3] | Ki [4] | Ki [5] | Ki [6] | Ki [7] | Ki [8]
5.01 µM (active) | Cc1cc2c(c(C#N)c1C)OC1(CCCCC1)C(N)C2=O (centres undefined) | 1.58 µM (active) |  |  |  |  |  | 
 | Nc1nnc2sc3ccccc3n12 | 39.8 µM (active) | 39.8 µM (active) | 39.8 µM (active) | 31.6 µM (active) | 79.4 µM (active) | 63.1 µM (active) | 63.1 µM (active)
